Test results as given in paper PMC5399792 (Nucleic Acids Research, 2017).
“And” between values parts separate entries of the source, which are not always exact repeats. Equal values may be shown once. Read-outs that look alike come from different tables or passages of the source.

Target: influenza B polymerase bound to a c/v hybrid promoter (Influenza B virus, UniProt Q5V8Y6)
Experiment: biochemical
Set-up: species or system influenza B/Memphis/13/03
[1] = 0.025 mM NTPs, capped RNA primed, T ∼ 21°C, t = 10 min, read-out: IC50 (mM), c/v hybrid promoter
[2] = 0.25 mM NTPs, capped RNA primed, T ∼ 21°C, t = 5 min, read-out: IC50 (mM), c/v hybrid promoter

| SMILES | IC50 [1] [mM] | IC50 [2] [mM] | IC50 (IC50 (mM), c/v hybrid promoter) |
| --- | --- | --- | --- |
| Nc1ncnc2c1ncn2[C@@H]1O[C@H](COP(=O)(O)OP(=O)(O)OP(=O)(O)O)[C@@H](O)[C@H]1F [2'F-2'dATP] | 0.04 | 0.33 |  |
| Nc1ccn([C@@H]2O[C@H](COP(=O)(O)OP(=O)(O)OP(=O)(O)O)[C@@H](O)[C@H]2F)c(=O)n1 [2'F-2'dCTP] |  |  | 0.45 mM and 1.9 mM |
| Nc1nc2c(ncn2[C@@H]2O[C@H](COP(=O)(O)OP(=O)(O)OP(=O)(O)O)[C@@H](O)[C@H]2F)c(=O)[nH]1 [2'F-2'dGTP] | 0.04 | 0.34 |  |
